This note sets out measurements from patent US11160808B2, “Compounds that enhance Atoh1 expression” (Massachusetts Eye & Ear Infirmary, priority 2008, dated 2021).

SMILES strings stand for the structures. Like-named read-outs stand apart in the source and are kept apart here.

In data set [1] the test system is Math1 enhancer and minimal promoter Luciferase reporter in HEK cells. As to the kind of experiment: Math1 Luciferase reporter assay in HEK cells. It counts as cell-based, human. The source says: A human embryonic kidney (HEK) cell line stably expressing a Luciferase gene controlled by an Math1 enhancer and minimal promoter was used in a high-throughput screen (HTS) of 144,000 small molecules to identify compounds that increase Math1 expression (i.e., transcription and/or translation). Such compounds can be used to increase the conversion of stem cells, progenitor cells, and support cells to or towards a hair cell. Screens to identify such compounds are described by Li et al., (U.S. Publication No. 2005/0287127) and Li et al., (U.S. application Ser. No. 11/953,797).
HEK cells stably expressing the Math1 Luciferase reporter were plated onto 384 well plates and cultured overnight in medium containing 10% fetal calf serum (FCS). Activation of the Math1 enhancer was measured by the increase in luminescence on a plate reader following addition of a luciferase detection agent. The assay was optimized for cell number, time of incubation, volume of medium, cell lysis reagent and luciferase reagent. Luminescence levels were compared in cells with the Math1-luciferase construct with and without retinoic acid (1 μM), and/or a luciferase construct with and without the Math1 enhancer and minimal promoter region.
To improve assay sensitivity, and reduce the coefficient of variation (CV), a more sensitive luciferase reagent (BriteLite luciferase reporter assay reagent, Perkin Elmer) was used, and Triton-X-100 was added to the lysis reagent to ensure complete lysis of the cells. Following these changes a CV of 4.2% was recorded. These conditions were used for all high-throughput screens. The luminescence threshold for a compound to be positive was defined as a 2-fold increase above the control (e.g., cells exposed to DMSO).
Cells were seeded on 384 well plates and allowed to attach overnight at 37° C. with 5% CO2 in the absence of growth factors. Math1 activation was measured by the increase in luminescence on a plate reader following addition of a luciferase detection reagent. Luminescence was assessed at 24, 48, and 72 hours. These conditions were used to screen 144,000 compounds contained in the small molecule libraries at Harvard University's Laboratory for Drug Discovery in Neurodegeneration (LDDN).
HTS were performed using HEK-Math1 cells seeded in 384 well plates. One compound was added per well using pin transfer. The final concentration of each compound was […]. Cell were incubated in the presence of a compound for 48 hours at 37° C. with 5% CO2. Cell lysates then were collected and bioluminescence determined. Luminescence values were compared normalized against DMSO.
About 20000 compounds were screened per week in 50 plates of 384 well with the aid of robotic systems (Beckman Biomek FX). Compounds were screened at an average final concentration of 0.7 μM (in 0.04% DMSO) with each plate containing 16 wells of 1 μM retinoic acid, as a positive control, and 16 wells of 0.04% DMSO, as a vehicle control. Percent activation of luminescence in the test compounds was determined for cells treated with the compounds against cells treated with DMSO.
Ten compounds, randomly selected from the group of 110 compounds identified in Example 2, were further evaluated, as follows. HEK cells were plated on 96 well plates at a density of 100000 cells per well. One day after plating, 0.1, 1, and 5 μM of each positive compound was added per well in a 10% fetal bovine serum (FBS) DMEM solution. Cells were then lysed 48 hours after addition of the compound and Math1 expression was analyzed using a luciferase reporter assay, as described above, and real-time PCR.
The half maximal inhibitory concentration (IC50) and median lethal dose or Lethal Dose, 50% (LD50) were determined for each of the compounds identified in Example 2 using standard laboratory techniques. IC50 is a measure of the effectiveness of a compound in inhibiting biological or biochemical function. LD50 is the amount of a compound required to kill half the members of a tested population.
In general terms: A reporter such as luciferase makes a cellular process visible.

The nature of data set [2]: LD50 (median lethal dose) determination. It counts as cell-based. The source says:
IC50 is a measure of the effectiveness of a compound in inhibiting biological or biochemical function. LD50 is the amount of a compound required to kill half the members of a tested population.

Where [3] appears, read: Homo sapiens, HEK293; read-out: IC50.
Setting [4] is: Homo sapiens, HEK293; read-out: Maximum (Fold DMSO).

For orientation: IC50 means the concentration that gives 50% inhibition.

With `Nc1nn(-c2ncnc3c2[nH]c2ccccc23)cc1-c1ccc(Cl)cc1` [CP-0000477, 4-(4-chlorophenyl)-1-(5H-pyrimido[5,4-b]indol-4-yl)-1H-pyrazol-3-amine], the half-inhibitory concentration (IC50) in data set [1] (setting [3]) stood at 2000 nM. Moreover, in data set [1] (setting [4]), the maximal fold induction was 2. For the same molecule, the “LD50” value in data set [2] was above 30 µM.

For the molecule `COc1ccc(-c2nc3ccc(Cl)cc3n2OCc2ccccc2Cl)cc1` [CP-0000550, 6-chloro-1-(2-chlorobenzyloxy)-2-(4-methoxyphenyl)-1H-benzo[d]imidazole], in data set [1] (setting [3]), the concentration for half-maximal inhibition (IC50) was found to be 30 nM. Also, in data set [1] (setting [4]), the maximal fold induction came out at 2. Moreover, the “LD50” value in data set [2] was above 30 µM.

`COc1ccc(-c2nc3ccc(Cl)cc3n2OCc2ccc(C)cc2)cc1` [CP-0000553, 6-chloro-2-(4-methoxyphenyl)-1-(4-methylbenzyloxy)-1H-benzo[d]imidazole]: in data set [1] (setting [3]), the IC50 is 10 nM. The maximal fold induction in data set [1] (setting [4]) turned out to be 2. Besides, the “LD50” value in data set [2] is above 30 µM.

With `COc1ccc(-c2nc3ccc(Cl)cc3n2OCc2cc(C)cc(C)c2)cc1` [CP-0000554, 6-chloro-1-(3,5-dimethylbenzyloxy)-2-(4-methoxyphenyl)-1H-benzo[d]imidazole], the IC50 in data set [1] (setting [3]) is 400 nM. Also, in data set [1] (setting [4]), the maximal fold induction is 2. Besides, in data set [2], the “LD50” value was above 30 µM.

For the molecule `COc1ccc(COn2c(-c3ccc(OC)cc3)nc3ccc(Cl)cc32)cc1` [CP-0000557, 6-chloro-1-(4-methoxybenzyloxy)-2-(4-methoxyphenyl)-1H-benzo[d]imidazole], the IC50 in data set [1] (setting [3]) is 20 nM. Also, in data set [1] (setting [4]), the maximal fold induction turned out to be 2.6. The “LD50” value in data set [2] was 30 µM.

For `Cc1ccc(COn2c(-c3ccccc3)nc3ccc([N+](=O)[O-])cc32)cc1` [CP-0000571, 1-(4-methylbenzyloxy)-6-nitro-2-phenyl-1H-benzo[d]imidazole], the IC50 in data set [1] (setting [3]) was determined as 300 nM. Also, the maximal fold induction in data set [1] (setting [4]) came out at 2. Also, the “LD50” value in data set [2] is above 30 µM.

Turning to `COc1cccc2c1OCC(C(=O)Nc1ccc(Cl)cc1Cl)=C2` [CP-0000928, N-(2,4-dichlorophenyl)-8-methoxy-2H-chromene-3-carboxamide], the half-maximal inhibitory concentration (IC50) in data set [1] (setting [3]) is 300 nM. Moreover, the maximal fold induction in data set [1] (setting [4]) turned out to be 2. Moreover, the “LD50” value in data set [2] was above 10 µM.

`O=C(NNC(=S)Nc1ccc(F)cc1)c1ccccc1Cl` [CP-0005186, 2-(2-chlorobenzoyl)-N-(4-fluorophenyl)hydrazine-carbothioamide]: the 50% inhibitory concentration (IC50) in data set [1] (setting [3]) is 1000 nM. Further, the maximal fold induction in data set [1] (setting [4]) stood at 1.8. Also, the “LD50” value in data set [2] is above 10 µM.

For the molecule `CNc1ccccc1C(=O)NCCc1ccccc1` [CP-0007991, 2-(methylamino)-N-phenethylbenzamide], the IC50 in data set [1] (setting [3]) turned out to be 600 nM. Further, in data set [1] (setting [4]), the maximal fold induction turned out to be 2. In data set [2], the “LD50” value is above 10 µM.

Regarding `CN(C)c1ccc(C2NN=C(c3ccc(Cl)cc3)N2)cc1` (stereo not shown) [CP-0007994, 4-(3-(4-chlorophenyl)-4,5-dihydro-1H-1,2,4-triazol-5-yl)-N,N-dimethylaniline], in data set [1] (setting [3]), the IC50 came out at 1000 nM. The maximal fold induction in data set [1] (setting [4]) was determined as 1.9. For the same molecule, the “LD50” value in data set [2] was above 10 µM.

In the case of `CC(=O)c1sc(-c2ccc(C(C)(C)C)cc2)cc1N` [CP-0008545, 1-(3-amino-5-(4-tert-butylphenyl)thiophen-2-yl)ethanone], the IC50 in data set [1] (setting [3]) is 400 nM. Also, the maximal fold induction in data set [1] (setting [4]) was found to be 2.5. Further, in data set [2], the “LD50” value is above 10 µM.

Take `O=C(Cn1nnc2ccccc21)NC1Cc2ccccc2C1` [CP-0009883, 2-(1H-benzo[d][1,2,3]triazol-1-yl)-N-(2,3-dihydro-1H-inden-2-yl)acetamide]: the IC50 in data set [1] (setting [3]) was 2500 nM. In addition, the maximal fold induction in data set [1] (setting [4]) was determined as 2.3. In addition, the “LD50” value in data set [2] was above 10 µM.

`c1ccc2cc(-c3cc4ccccc4[nH]3)ccc2c1` [CP-0010539, 2-(naphthalen-2-yl)-1H-indole]: the IC50 in data set [1] (setting [3]) was 500 nM. For the same molecule, the maximal fold induction in data set [1] (setting [4]) is 2.1. Moreover, in data set [2], the “LD50” value was above 10 µM.

With `Cc1cccc(NC(=O)c2ccc3c(c2)OCCO3)n1` [CP-0029278, N-(6-methylpyridin-2-yl)-2,3-dihydrobenzo [b][1,4]dioxine-6-carboxamide], the IC50 in data set [1] (setting [3]) was determined as 500 nM. For the same molecule, the maximal fold induction in data set [1] (setting [4]) came to 1.9. For the same molecule, the “LD50” value in data set [2] is above 10 µM.

Take `O=C(CSc1nc2ccccc2o1)Nc1ccccc1Cl` [CP-0029300, 2-(benzo[d]oxazol-2-ylthio)-N-(2-chlorophenyl)acetamide]: the IC50 in data set [1] (setting [3]) was 1600 nM. In addition, in data set [1] (setting [4]), the maximal fold induction was determined as 2. Moreover, in data set [2], the “LD50” value was above 10 µM.

As to `CC(C)COc1ccc(C2Nc3ccccc3C(=O)N2c2ccc3ccccc3c2)cc1` (stereo not shown) [CP-0034360, 2-(4-isobutoxyphenyl)-3-(naphthalen-2-yl)-2,3-dihydroquinazolin-4(1H)-one], the IC50 in data set [1] (setting [3]) stood at 1000 nM. In data set [1] (setting [4]), the maximal fold induction came out at 2. The “LD50” value in data set [2] was above 10 µM.

As to `O=C(CSc1nc2ccccc2c(=O)n1NC(=O)c1ccccc1)c1ccc(F)cc1` [CP-0036187, N-(2-(2-(4-fluorophenyl)-2-oxoethylthio)-4-oxoquinazolin-3(4H)-yl)benzamide], the IC50 in data set [1] (setting [3]) came to 1000 nM. For the same molecule, the maximal fold induction in data set [1] (setting [4]) was determined as 2.3. In data set [2], the “LD50” value was above 10 µM.

Regarding `COc1ccc(C2=NN3C(C2)c2cccc(OC)c2OC32CCCCC2)cc1` (stereo not shown) [CP-0039073, 7-methoxy-2-(4-methoxyphenyl)-1,10b-dihydrospiro[benzo[e]pyra-zolo[1,5-c][1,3]oxazine-5,1′-cyclohexane]], the half-inhibitory concentration (IC50) in data set [1] (setting [3]) is 1500 nM. Also, in data set [1] (setting [4]), the maximal fold induction worked out at 2.4. Besides, the “LD50” value in data set [2] is above 10 µM.

With `Cc1ccc(-c2cnc3ccccc3n2)cc1C` [CP-0045061, 2-(3,4-dimethylphenyl) quinoxaline], the 50% inhibitory concentration (IC50) in data set [1] (setting [3]) turned out to be 3000 nM. In data set [1] (setting [4]), the maximal fold induction turned out to be 1.9. Also, the “LD50” value in data set [2] was above 10 µM.

As to `Oc1ccc(-c2nc3ccccc3[nH]2)cc1` [CP-0047659, 4-(1H-benzo[d]imidazol-2-yl)phenol], in data set [1] (setting [3]), the IC50 came to 1300 nM. Besides, the maximal fold induction in data set [1] (setting [4]) turned out to be 2.3. The “LD50” value in data set [2] was above 10 µM.

As to `COc1ccc(C2C=C(c3ccc(Cl)cc3)Nc3nc4ccccc4n32)cc1` (stereo not shown) [CP-0050095, 2-(4-chlorophenyl)-4-(4-methoxyphenyl)-1,4-dihydrobenzo[4.5]imi-dazo[1,2-a]pyrimidine], the 50% inhibitory concentration (IC50) in data set [1] (Homo sapiens, HEK293) came to 1500 nM. For the same molecule, in data set [1] (Homo sapiens, HEK293, read-out: Maximum (Fold DMSO)), the maximal fold induction worked out at 2.6. For the same molecule, the “LD50” value in data set [2] is above 10 µM.

For the molecule `COCCNc1ncc(-c2ccc(C)cc2)cn1` [CP-0059547, N-(2-methoxyethyl)-5-p-tolylpyrimidin-2-amine], the IC50 in data set [1] (setting [3]) amounted to 1000 nM. For the same molecule, the maximal fold induction in data set [1] (setting [4]) stood at 2. Moreover, the “LD50” value in data set [2] was above 10 µM.

For `c1ccc2sc(-c3cnc(N4CCOCC4)nc3)cc2c1` [CP-0059563, 4-(5-(benzo[b]thiophen-2-yl)pyrimidin-2-yl)morpholine], the half-inhibitory concentration (IC50) in data set [1] (setting [3]) is above 10000 nM. For the same molecule, the maximal fold induction in data set [1] (setting [4]) came to 1.9. Further, in data set [2], the “LD50” value was above 10 µM.

Consider `Fc1ccc(-c2cnc(N3CCOCC3)nc2)cc1` [CP-0059642, 4-(5-(4-fluorophenyl)pyrimidin-2-yl)morpholine], for which the concentration for half-maximal inhibition (IC50) in data set [1] (setting [3]) stood at 1000 nM. In addition, the maximal fold induction in data set [1] (setting [4]) was found to be 2.2. Besides, the “LD50” value in data set [2] is above 10 µM.

For `CC1=C(/C=C/C(C)=C/C=C/C(C)=C/C(=O)O)C(C)(C)CCC1` [retinoic acid, reference compound], in data set [1] (1 μM, compared to non-treated cells), the “increase in luciferase activity” value is listed as 1.8 fold.
